Data: patent US20180243212A1, “TRANSDERMAL FORMULATIONS FOR DELIVERY OF DOXYCYCLINE, AND THEIR USE IN THE TREATMENT OF DOXYCYCLINE-RESPONSIVE DISEASES AND CONDITIONS” (DELIVRA, INC., priority 2015, published 2018)

Assays:
[1] = compounded from commercial tablets in the vehicles; Papich et al. (2013); cited from earlier work
[2] = Quantification of doxycycline in formulations 1-3 by LC-MS/MS (stability); type: physicochemical; settings: over the time period studied (three months) under the storage conditions 5-25° C.
Procedure: 2.0-5.0 mg of doxycycline hyclate, usp (Medisca, CAS 24390-14-5, code 0434-04, lot 59177/D) was weighed into a scintillation vial and the mass was recorded. The recorded mass was then used to calculate the volume of solvent needed to generate a final concentration of 1 mg/mL and that amount of 60:28:12 H2O:CH3CN:MeOH was accurately added to the vial using a pipette. The solution was vortexed for 30 seconds or until the doxycycline hyclate was completely dissolved.
A 50 μg/mL solution of doxycycline hyclate was prepared by adding 50 μL of 1 mg/mL stock solution to 950 μL of methanol/water (50:50) and the resulting solution was vortexed for 10 seconds. […]
5-10 mgs of exemplary formulation 3 to be analyzed was weighed into a scintillation vial in duplicate. The mass was recorded and used to calculate the amount of methanol/water (50:50) to add to make up to 1 mg/mL and this was added. […]
Doxycycline was extracted in methanol:water from cream formulations by sonication, diluted and then quantified using liquid chromatography-triple quadruple mass spectrometry (LC-MS/MS). A calibration curve calculated by the peak area ratio of concentration of an analytical standard of doxycycline to an internal standard was used to calculate the concentrations of unknowns and establish linearity and LLOQ. […]

degradation of the doxycycline [2]: < 10%
Substance: Doxycycline
time over which the concentration of DOX can be assured [1]: ≤ 7 days
